Test results reported in patent US20250076280A1, “RAPID SCREENING FOR ELEVATED BILE ACIDS USING WHOLE BLOOD” (The University of Toledo, priority 2022, published 2025).

How the values were obtained:
[1] = Serum total bile acids in carbon tetrachloride-induced liver injury model; assay type: in vivo, mouse; conditions: L-TBA mice, CCl4 i.p. three times a week for 2 weeks vs vehicle control
Description: (§1) C57BL/6J wild-type (WT) mice (Stock #000664) were procured from Jackson Laboratory and bred in-house in specific pathogen-free condition at the University of Toledo College of Medicine and Life Sciences. Mice were housed in cages (n=5 mice/cage) containing corn cob bedding (Bed-O-Cob; The Andersons Co.) and nestlets (Cat #CABFM00088; Ancare). The cages were housed at 23° C. under a 12/12-h light/dark phase cycle and fed a grain-based laboratory chow diet (LabDiet 5001) ad libitum. Mice were screened for serum total bile acids (TBA) prior to weaning. On day 22 for weaning, mice with low bile acids (L-TBA<40 µM) or high bile acids (H-TBA≥40 µM) were segregated into separate cages. To induce liver fibrosis in mice, carbon tetrachloride (Sigma-Aldrich, St. Louis, MO) ([…]) was administered intraperitoncally three times a week for 2 weeks with corn oil (Sigma-Aldrich) (50 μL) serving as vehicle control.
Total bile acids (TBA) in hemolysis-free sera were measured using a TBA assay kit (Enzyme Cycling Method; Diazyme Laboratories) according to the manufacturer's protocol.

RBCs = assay: Osmotic fragility test of RBCs from CCl4-treated mice; assay type: in vivo, mouse; conditions: RBCs of L-TBA mice treated with CCl4 for 2 weeks vs vehicle; NaCl osmotic fragility
Description: as §1
Blood was collected in EDTA-containing tubes and then 10 μl aliquots were placed into a round bottom 96-well plate. […] The degree of red blood cell (RBC) hemolysis was evaluated spectrophotometrically at 540 nm on a Biotek Eon microplate spectrophotometer and normalized to the optical density value of 0.0% buffered salt solution. […] All groups were incubated at 37° C. for 1 hr prior and measured for osmotic fragility.

RBCs from L-TBA mice = assay: Osmotic fragility test after ex-vivo bile acid supplementation of RBCs; assay type: cell-based, mouse; conditions: 100 μM bile acid in PBS, 1 hr at 37° C. before NaCl osmotic fragility test; vs PBS alone

SMILES	increase in serum TBA levels [1]	resistance of RBCs to osmotic lysis (RBCs)	resistance to osmotic lysis (hemolysis) of L-TBA RBCs (RBCs from L-TBA mice)
ClC(Cl)(Cl)Cl [CCl4, carbon tetrachloride]	16 fold	highly resistant to osmotic lysis	
C[C@H](CCC(=O)O)[C@H]1CC[C@H]2[C@@H]3[C@H](O)C[C@@H]4C[C@H](O)CC[C@]4(C)[C@H]3C[C@H](O)[C@]12C [cholic acid]			confer resistance
C[C@H](CCC(=O)NCCS(=O)(=O)O)[C@H]1CC[C@H]2[C@@H]3[C@H](O)C[C@@H]4C[C@H](O)CC[C@]4(C)[C@H]3C[C@H](O)[C@]12C [taurocholate, taurocholic acid]			failed to induce any resistance
